Data from the supplement of paper PMC10627819.

What was measured:
[1] = tested on: B. subtilis 168; assay: fitness (endpoint OD595 vs no drug) (fraction); higher = more growth
Method in brief: (§1)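 Plates with 384 wells were inoculated at OD595 0.01 using 30 µl of TSB, LB Lennox or CY, or 55 µl for S. pneumoniae. Incubation was at 37 °C, with OD595 measured every 30 min for 14 h. Fitness is the stationary-phase transition optical density over the robust mean of no-drug control wells, after first-reading background subtraction; it is capped at 1.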

[2] = tested on: S. pneumoniae D39V; assay: as above
Method in brief: as §1

[3] = tested on: B. subtilis 168; assay: Bliss interaction score (quartile over a dose matrix) (fitness difference); higher = more antagonism (negative = synergy)
Method in brief: (§2)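 Fitness was defined as normalised growth: OD595 at the start of stationary phase divided by the plate's robust no-drug mean and capped at 1. Single-drug fitness was inferred from combination measurements. The Bliss score is observed fitness minus the product of the single-drug values, summarised by quartiles across technical, biological and donor/recipient replicates.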

[4] = tested on: S. aureus DSM 20231; assay: as above
Method in brief: as §2

[5] = tested on: S. aureus Newman; assay: as above
Method in brief: as §2

[6] = tested on: S. pneumoniae D39V; assay: as above
Method in brief: as §2
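For Bliss interaction score (quartile over a dose matrix) in this document: first quartile when negative (synergy) and third quartile when positive (antagonism).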

C[C@H]1COc2c(N3CCN(C)CC3)c(F)cc3c(=O)c(C(=O)O)cn1c23 [Levofloxacin] + COc1c(N2C[C@@H]3CCCN[C@@H]3C2)c(F)cc2c(=O)c(C(=O)O)cn(C3CC3)c12 [Moxifloxacin]
fitness ([1]; first compound 0.001 µg/mL, partner 0.0312 µg/mL, one replicate): 0.575
fitness ([1]; first compound 0.001 µg/mL, partner 0.0625 µg/mL, one replicate): 0.0212
fitness ([1]; first compound 0.001 µg/mL, partner 0.125 µg/mL, one replicate): 0
fitness ([1]; first compound 0.002 µg/mL, partner 0.0312 µg/mL): 0.0439
fitness ([1]; first compound 0.002 µg/mL, partner 0.0625 µg/mL): 0.0254
fitness ([1]; first compound 0.002 µg/mL, partner 0.125 µg/mL): 0.0489
fitness ([1]; first compound 0.0039 µg/mL, partner 0.0312 µg/mL): 0.0651
fitness ([1]; first compound 0.0039 µg/mL, partner 0.0625 µg/mL): 0.0551
fitness ([1]; first compound 0.0039 µg/mL, partner 0.125 µg/mL): 0.0554
fitness ([1]; first compound 0.0078 µg/mL, partner 0.0312 µg/mL): 0.0472
fitness ([1]; first compound 0.0078 µg/mL, partner 0.0625 µg/mL): 0.0515
fitness ([1]; first compound 0.0078 µg/mL, partner 0.125 µg/mL): 0.0578
fitness ([1]; first compound 0.0312 µg/mL, partner 2 µg/mL): 0.0397
fitness ([1]; first compound 0.0312 µg/mL, partner 4 µg/mL): 0.0257
fitness ([1]; first compound 0.0312 µg/mL, partner 8 µg/mL): 0.0215
fitness ([1]; first compound 0.0625 µg/mL, partner 2 µg/mL): 0.0387
fitness ([1]; first compound 0.0625 µg/mL, partner 4 µg/mL): 0.0417
fitness ([1]; first compound 0.0625 µg/mL, partner 8 µg/mL): 0.0241
fitness ([1]; first compound 0.125 µg/mL, partner 2 µg/mL): 0.0455
fitness ([1]; first compound 0.125 µg/mL, partner 4 µg/mL): 0.0375
fitness ([1]; first compound 0.125 µg/mL, partner 8 µg/mL): 0.0205
fitness ([2]; first compound 0.1725 µg/mL, partner 0.0037 µg/mL): 0.882
fitness ([2]; first compound 0.1725 µg/mL, partner 0.0075 µg/mL): 0.848
fitness ([2]; first compound 0.1725 µg/mL, partner 0.015 µg/mL): 0.887
fitness ([2]; first compound 0.2 µg/mL, partner 0.005 µg/mL): 0.899
fitness ([2]; first compound 0.2 µg/mL, partner 0.01 µg/mL): 0.943
fitness ([2]; first compound 0.2 µg/mL, partner 0.02 µg/mL): 0.857
fitness ([2]; first compound 0.345 µg/mL, partner 0.0037 µg/mL): 0.723
fitness ([2]; first compound 0.345 µg/mL, partner 0.0075 µg/mL): 0.69
fitness ([2]; first compound 0.345 µg/mL, partner 0.015 µg/mL): 0.738
fitness ([2]; first compound 0.4 µg/mL, partner 0.005 µg/mL): 0.842
fitness ([2]; first compound 0.4 µg/mL, partner 0.01 µg/mL): 0.85
fitness ([2]; first compound 0.4 µg/mL, partner 0.02 µg/mL): 0.77
fitness ([2]; first compound 0.69 µg/mL, partner 0.0037 µg/mL): 0.418
fitness ([2]; first compound 0.69 µg/mL, partner 0.0075 µg/mL): 0.391
fitness ([2]; first compound 0.69 µg/mL, partner 0.015 µg/mL): 0.489
Bliss interaction score [3]: 0.0308
Bliss interaction score [4]: -0.0852
Bliss interaction score [5]: -0.201
Bliss interaction score [6]: -0.0874

C[C@H]1COc2c(N3CCN(C)CC3)c(F)cc3c(=O)c(C(=O)O)cn1c23 [Levofloxacin] + COc1ccc(C[C@H](N)C(=O)N[C@H]2[C@@H](O)[C@H](n3cnc4c(N(C)C)ncnc43)O[C@@H]2CO)cc1 [Puromycin]
fitness ([1]; first compound 0.001 µg/mL, partner 0.39 µg/mL, one replicate): 0.961
fitness ([1]; first compound 0.001 µg/mL, partner 0.78 µg/mL, one replicate): 0.949
fitness ([1]; first compound 0.001 µg/mL, partner 1.56 µg/mL, one replicate): 0.934
fitness ([1]; first compound 0.002 µg/mL, partner 0.39 µg/mL, one replicate): 0.909
fitness ([1]; first compound 0.002 µg/mL, partner 0.78 µg/mL, one replicate): 0.967
fitness ([1]; first compound 0.002 µg/mL, partner 1.56 µg/mL, one replicate): 0.909
fitness ([1]; first compound 0.0039 µg/mL, partner 0.39 µg/mL, one replicate): 0.834
fitness ([1]; first compound 0.0039 µg/mL, partner 0.78 µg/mL, one replicate): 0.884
fitness ([1]; first compound 0.0039 µg/mL, partner 1.56 µg/mL, one replicate): 0.868
fitness ([1]; first compound 0.0312 µg/mL, partner 0.39 µg/mL): 0.0269
fitness ([1]; first compound 0.0312 µg/mL, partner 0.78 µg/mL): 0.0422
fitness ([1]; first compound 0.0312 µg/mL, partner 1.56 µg/mL): 0.0415
fitness ([1]; first compound 0.0625 µg/mL, partner 0.39 µg/mL): 0.0447
fitness ([1]; first compound 0.0625 µg/mL, partner 0.78 µg/mL): 0.0467
fitness ([1]; first compound 0.0625 µg/mL, partner 1.56 µg/mL): 0.0483
fitness ([1]; first compound 0.125 µg/mL, partner 0.39 µg/mL): 0.0177
fitness ([1]; first compound 0.125 µg/mL, partner 0.78 µg/mL): 0.0355
fitness ([1]; first compound 0.125 µg/mL, partner 1.56 µg/mL): 0.0409
fitness ([2]; first compound 0.1725 µg/mL, partner 1 µg/mL): 0.981
fitness ([2]; first compound 0.1725 µg/mL, partner 2 µg/mL): 0.944
fitness ([2]; first compound 0.1725 µg/mL, partner 4 µg/mL): 0.796
fitness ([2]; first compound 0.2 µg/mL, partner 1 µg/mL, one replicate): 0.828
fitness ([2]; first compound 0.2 µg/mL, partner 2 µg/mL, one replicate): 0.854
fitness ([2]; first compound 0.2 µg/mL, partner 4 µg/mL, one replicate): 0.777
fitness ([2]; first compound 0.345 µg/mL, partner 1 µg/mL): 0.919
fitness ([2]; first compound 0.345 µg/mL, partner 2 µg/mL): 0.895
fitness ([2]; first compound 0.345 µg/mL, partner 4 µg/mL): 0.8
fitness ([2]; first compound 0.4 µg/mL, partner 1 µg/mL, one replicate): 0.672
fitness ([2]; first compound 0.4 µg/mL, partner 2 µg/mL, one replicate): 0.741
fitness ([2]; first compound 0.4 µg/mL, partner 4 µg/mL, one replicate): 0.628
fitness ([2]; first compound 0.69 µg/mL, partner 1 µg/mL): 0.689
fitness ([2]; first compound 0.69 µg/mL, partner 2 µg/mL): 0.661
fitness ([2]; first compound 0.69 µg/mL, partner 4 µg/mL): 0.599
fitness ([2]; first compound 0.8 µg/mL, partner 1 µg/mL, one replicate): 0.288
fitness ([2]; first compound 0.8 µg/mL, partner 2 µg/mL, one replicate): 0.309
fitness ([2]; first compound 0.8 µg/mL, partner 4 µg/mL, one replicate): 0.205
Bliss interaction score [3]: -0.0129
Bliss interaction score [4]: -0.0463
Bliss interaction score [5]: -0.0822
Bliss interaction score [6]: 0.0705

C[C@H]1COc2c(N3CCN(C)CC3)c(F)cc3c(=O)c(C(=O)O)cn1c23 [Levofloxacin] + C[n+]1ccc(-c2cc[n+](C)cc2)cc1 [Paraquat]
fitness ([1]; first compound 0.001 µg/mL, partner 1.25 µg/mL, one replicate): 0.91
fitness ([1]; first compound 0.001 µg/mL, partner 2.5 µg/mL, one replicate): 0.966
fitness ([1]; first compound 0.001 µg/mL, partner 5 µg/mL, one replicate): 0.889
fitness ([1]; first compound 0.002 µg/mL, partner 1.25 µg/mL, one replicate): 0.941
fitness ([1]; first compound 0.002 µg/mL, partner 2.5 µg/mL, one replicate): 0.876
fitness ([1]; first compound 0.002 µg/mL, partner 5 µg/mL, one replicate): 0.778
fitness ([1]; first compound 0.0039 µg/mL, partner 1.25 µg/mL, one replicate): 0.829
fitness ([1]; first compound 0.0039 µg/mL, partner 2.5 µg/mL, one replicate): 0.823
fitness ([1]; first compound 0.0039 µg/mL, partner 5 µg/mL, one replicate): 0.766
fitness ([1]; first compound 0.0312 µg/mL, partner 1.25 µg/mL): 0.0392
fitness ([1]; first compound 0.0312 µg/mL, partner 2.5 µg/mL): 0.0272
fitness ([1]; first compound 0.0312 µg/mL, partner 5 µg/mL): 0.0508
fitness ([1]; first compound 0.0625 µg/mL, partner 1.25 µg/mL): 0.0443
fitness ([1]; first compound 0.0625 µg/mL, partner 2.5 µg/mL): 0.0296
fitness ([1]; first compound 0.0625 µg/mL, partner 5 µg/mL): 0.0462
fitness ([1]; first compound 0.125 µg/mL, partner 1.25 µg/mL): 0.0452
fitness ([1]; first compound 0.125 µg/mL, partner 2.5 µg/mL): 0.0268
fitness ([1]; first compound 0.125 µg/mL, partner 5 µg/mL): 0.0464
fitness ([2]; first compound 0.1725 µg/mL, partner 1.5 µg/mL): 0.977
fitness ([2]; first compound 0.1725 µg/mL, partner 3 µg/mL): 0.974
fitness ([2]; first compound 0.1725 µg/mL, partner 6 µg/mL): 0.972
fitness ([2]; first compound 0.2 µg/mL, partner 1.5 µg/mL, one replicate): 0.966
fitness ([2]; first compound 0.2 µg/mL, partner 3 µg/mL, one replicate): 0.983
fitness ([2]; first compound 0.2 µg/mL, partner 6 µg/mL, one replicate): 0.994
fitness ([2]; first compound 0.345 µg/mL, partner 1.5 µg/mL): 0.91
fitness ([2]; first compound 0.345 µg/mL, partner 3 µg/mL): 0.919
fitness ([2]; first compound 0.345 µg/mL, partner 6 µg/mL): 0.849
fitness ([2]; first compound 0.4 µg/mL, partner 1.5 µg/mL, one replicate): 0.911
fitness ([2]; first compound 0.4 µg/mL, partner 3 µg/mL, one replicate): 0.939
fitness ([2]; first compound 0.4 µg/mL, partner 6 µg/mL, one replicate): 0.952
fitness ([2]; first compound 0.69 µg/mL, partner 1.5 µg/mL): 0.602
fitness ([2]; first compound 0.69 µg/mL, partner 3 µg/mL): 0.647
fitness ([2]; first compound 0.69 µg/mL, partner 6 µg/mL): 0.569
fitness ([2]; first compound 0.8 µg/mL, partner 1.5 µg/mL, one replicate): 0.615
fitness ([2]; first compound 0.8 µg/mL, partner 3 µg/mL, one replicate): 0.684
fitness ([2]; first compound 0.8 µg/mL, partner 6 µg/mL, one replicate): 0.696
Bliss interaction score [3]: -0.0255
Bliss interaction score [4]: -0.0517
Bliss interaction score [5]: -0.0586
Bliss interaction score [6]: 0.0861
